According to publication PMC12113707, “Microwave Assisted Synthesis of Antioxidant Dihydro-Pyrazole Hybrids as Possible Lipoxygenase Inhibitors” (Molecules, 2025):

Assays:
[1] = Experimental lipophilicity RM by reverse phase thin layer chromatography (RP-TLC); type: physicochemical; details: methanol-water mobile phase
Experimental: Lipophilicity is a main physicochemical parameter for bioactive molecules, linking solubility, ligand-target binding interactions, membrane permeability absorption, distribution, bioavailability, metabolism, elimination and toxicological effects (ADMET), playing an important role in biological activity. The experimental values of lipophilicity RM were determined by reverse phase thin layer chromatography. For the experimental determination of lipophilicity the hydrophilic-lipid phase system is a mixture of methanol- water (90/10%). The theoretical lipophilicity values are determined by the Bioloom program (http://biobyte.com/bb/prod/bioloom.html, accessed on 8 April 2024) (Table 1). According to the calculated clog P values, the most lipophilic compounds are 3c, 3d and 3f while the less lipophilic ones are compounds 5a and 5b.
Melting points were determined on a MEL-Temp II (Lab. Devices, Holliston, MA, USA). In vitro tests were carried out using a UV-Vis spectra and recorded on a Perkin-Elmer 554 double-beam spectrophotometer (Perkin-Elmer Corporation Ltd., Lane Beaconsfield, Bucks, UK). Infrared spectra (KBr pellets) were recorded with Perkin-Elmer 597 spectrophotometer (Perkin-Elmer Corporation Ltd., Lane Beaconsfield, Bucks, UK). The ^1H […] Magnetic Resonance (^1H-NMR) spectra were acquired on an Agilent 500/54 (DD2) at 500 MHz in CDCl3 using tetramethylsilane as an internal standard. Agilent 500/54 (DD2) ^13C NMR spectra were acquired at 125 MHz in CDCl3 solutions with tetramethylsilane serving as an internal reference. Coupling constants J are expressed in Hz, and chemical shifts are reported in ppm. Thermo Fisher Scientific Inc., Waltham, MA, USA, used MeOH as the solvent to calculate mass spectra using an LC-PDA-MS Thermo Finnigan system (LC Pump Plus, Autosampler, Surveyor PDA Plus Detector) interfaced with an ESI MSQ Plus (Thermo Finnigan). Thin-layer chromatography using 5554 F254 Silica gel/TLC cards (Merck and Fluka Chemie GmbH Buchs, Steinheim, Switzerland) was used to monitor the reaction progress. Silica gel 60 F254 plates with a diameter of 2 mm were utilized for preparative thin layer chromatography (prep TLC) by Merck KgaA (ICH078057). Merck (20 × 20 cm) plates were used for the experimental assessment of the lipophilicity using reverse phase thin-layer chromatography (RP-TLC) TLC-Silica gel 60 F254 DC Kieselgel.
In this experiment, TLC silica gel 60 F254 1.05715.0001 commercial glass plates from Merck were used. The plates were first immersed in a 5% v/v solution of liquid paraffin in petroleum ether and left for 90 s to become completely impregnated with the stable lipophilic phase. They were then activated by standing for 30 min in an oven at 40 °C and kept there until the time of use. A 70% v/v MeOH/H2O mixture was used as the mobile phase. The mobile phase was saturated with a few drops of liquid paraffin before being used. The spots of the compounds were placed on the plate at a distance of 2 cm from the edges of the plate and also from each other. The development of the spots on the plates was carried out in closed chromatography chambers where the atmosphere is saturated with the mobile phase at room temperature. At the end of development, the solvent-formed front was marked and the plates are dried at 80 °C for about 20–30 min. The appearance of the spots was made under an ultraviolet light lamp. The Rf values were the average of 5–6 measurements for each compound and assuming that the compounds will have been rotated to different positions on the plates. The RM values were calculated from the corresponding Rf values according to the equation [67].RM = log [(1/Rf) − 1](1)

[2] = Interaction with the stable free radical DPPH (reducing activity); details: 517 nm
Experimental: In general, the compounds present moderate to good antioxidant activity. It seems that the dibenzylacetones present satisfactory antioxidant activity compared to the hybrids at 60 min (1b, 1d and 1f).
The tested compounds (0.1 mM final concentration) dissolved in DMSO were incubated with a solution of DPPH in absolute ethanol in absence of light. The absorbance at 20 and 60 min at 517 nm was recorded at room temperature. NDGA was used as the reference compound.

[3] = Inhibition of AAPH-induced linoleic acid peroxidation; details: 37 °C, 234 nm
Experimental: The ability of the compounds to inhibit AAPH-induced peroxidation of linoleic acid is another assay to investigate the antioxidant properties of the compounds. Azo compounds such as 2,2′-azobis dihydrochloride (2-amidinopropane) (AAPH) are capable of generating free radicals through spontaneous decomposition at 37 °C. The R- radicals react immediately with air-oxygen to produce peroxy radicals. AAPH was therefore used as the radical initiator and sodium linoleate as substrate subjected to peroxidation. Measurements were carried out at 234 nm using a UV/V is spectrophotometer. Dichalcone 1i substituted with two phenyl groups presents the lowest lipophilicity. […] Therefore, hydrophilic substituents offer an increase in activity.
The interaction of free radicals with cell membrane lipids induces free radical chain reactions, a process called lipid peroxidation. 930 μL of a phosphate buffer solution (0.05 M, pH = 7.4), 10 μL of the sodium linolate solution (16 mM in a buffer solution of Tris-HCl pH = 9) and 10 μL of the tested compounds (stock solutions 100 μΜ) were mixed and the oxidative procedure started after the addition of 50 μL AAPH at 37 °C under air conditions. The conjugated diene’s absorbance was measured at 234 nm at a thermostable spectrophotometer (37 °C) according to previous publication.

[4] = molecular target: T1, soybean lipoxygenase (SLOX-1) (Glycine max, UniProt P08170); assay: Inhibition of soybean lipoxygenase in vitro; type: biochemical; details: pH 9, sodium linoleate substrate; for inhibition at 100 µM: read-out: LOX% Inhibition, 100 μM (±SD); for IC50: read-out: LOX IC50 (μM) (±SD)
T1 construct: 200 μL of plant-derived lipoxygenase solution (1:9 × 10^−4 w/v, in saline); purchased Sigma Chemical, Co; host or cells: soybean (plant-derived)
T1 sequence (P08170 1-839): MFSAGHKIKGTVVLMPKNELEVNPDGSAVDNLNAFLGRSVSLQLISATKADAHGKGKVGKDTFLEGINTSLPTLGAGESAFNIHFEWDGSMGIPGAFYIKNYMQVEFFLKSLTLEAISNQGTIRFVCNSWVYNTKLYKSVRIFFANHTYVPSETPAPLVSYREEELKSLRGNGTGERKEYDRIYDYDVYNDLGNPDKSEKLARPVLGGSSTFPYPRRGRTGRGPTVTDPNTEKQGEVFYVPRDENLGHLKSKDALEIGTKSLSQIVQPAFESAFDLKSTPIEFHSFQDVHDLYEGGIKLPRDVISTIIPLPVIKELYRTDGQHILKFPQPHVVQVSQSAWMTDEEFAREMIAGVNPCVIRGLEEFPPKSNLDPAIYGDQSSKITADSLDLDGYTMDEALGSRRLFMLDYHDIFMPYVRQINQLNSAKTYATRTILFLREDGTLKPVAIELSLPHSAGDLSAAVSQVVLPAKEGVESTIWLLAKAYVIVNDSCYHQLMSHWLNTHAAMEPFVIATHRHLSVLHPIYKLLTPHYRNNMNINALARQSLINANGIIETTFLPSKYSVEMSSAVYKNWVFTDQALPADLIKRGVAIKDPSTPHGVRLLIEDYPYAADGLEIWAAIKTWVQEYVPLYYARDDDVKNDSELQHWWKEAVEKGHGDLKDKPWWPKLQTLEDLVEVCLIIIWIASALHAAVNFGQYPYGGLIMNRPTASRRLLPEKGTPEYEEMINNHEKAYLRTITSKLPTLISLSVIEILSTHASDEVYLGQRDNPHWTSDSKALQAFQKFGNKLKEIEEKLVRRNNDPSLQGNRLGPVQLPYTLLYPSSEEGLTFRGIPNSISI
Experimental: Soybean lipoxygenase SLOX-1 at pH 9 is used in vitro. During this assay linoleic acid sodium salt is converted to the corresponding 13-hydroperoxide. The reaction is recorded photometrically at 234 nm using the UV-based enzyme assay. […] It is known that soybean LOX inhibitory activity induced by NSAIDs is qualitatively quite similar to the inhibition observed on the rat mast cells LOX and this assay may be used as a qualitative or semi-quantitative screen for such activity.
To a quartz cell, add 790 μL of Tris-HCl pH = 9.0 buffer, 200 μL of plant-derived lipoxygenase solution (1:9 × 10^−4 w/v, in saline), 10 μL of the test compound solution and 100 μL of sodium linoleate solution (3 mM concentration). The absorbance was measured at 234 nm, where the change in absorbance due to the conversion of linoleic acid to […] was recorded. A solution of 790 μL of Tris-HCl pH = 9.0 buffer, 200 μL of a plant-derived lipoxygenase solution (1:9 × 10^−4 w/v, in saline), 10 μL of DMSO and 100 μL of sodium linoleate solution (3 mM concentration) was used as a control.

Compound | RM ± SD [1] | RA%, 100 μM, 20 min (±SD) [2] | RA%, 100 μM, 60 min (±SD) [2] | AAPH% Inhibition, 100 μM (±SD) [3] | inhibition at 100 µM [4] | IC50 [4]
O=C(/C=C/c1ccc(F)cc1)/C=C/c1ccc(F)cc1 [Compound 1b, (1E,4E)-1,5-bis(4-fluorophenyl)-1,4-pentadien-3-one] | 0.19 ± 0.001 | 13 ± 0.6% | 100 ± 1.1% | 37 ± 0.1% | 30 ± 0.1% | 
Brc1ccc(N2N=C(/C=C/c3ccccc3)CC2c2ccccc2)cc1 (stereo not drawn) [Compound 3a, (E)-1-(4-bromophenyl)-5-phenyl-3-styryl-4,5-dihydro-1H-pyrazole] | 1.11 ± 0.068 | 10 ± 0.3% | 22 ± 0.9% | 75 ± 1.4% | 51 ± 2.2% | 
C(=C\c1ccccc1)/C1=NN(c2ccccc2)C(c2ccccc2)C1 (stereo not drawn) [Compound 2a, (E)-1,5-Diphenyl-3-styryl-4,5-dihydro-1H-pyrazole] | 1.00 ± 0.084 |  | 17 ± 1.2% | 44 ± 0.7% | 42 ± 2.4% | 
NC(=O)N1N=C(/C=C/c2ccc(F)cc2)CC1c1ccc(F)cc1 (stereo not drawn) [Compound 5b, (E)-5-(4-fluorophenyl)-3-(4-fluorostyryl)-4,5-dihydro-1H-pyrazole-1-carboxamide] | 0.06 ± 0.004 | 19 ± 0.1% |  | 8 ± 0.2% | 39 ± 0.7% | 
N#Cc1ccc(N2N=C(/C=C/c3ccc(Br)cc3)CC2c2ccc(Br)cc2)cc1 (stereo not drawn) [Compound 4c, (E)-4-(5-(4-bromophenyl)-3-(4-bromostyryl)-4,5-dihydro-1H-pyrazol-1-yl)-benzonitrile] | 0.94 ± 0.069 | 2 ± 0.1% |  | 59 ± 0.2% | 17 ± 1.2% | 
FC(F)(F)c1ccc(/C=C/C2=NN(c3ccc(Br)cc3)C(c3ccc(C(F)(F)F)cc3)C2)cc1 (stereo not drawn) [Compound 3f] | 1.47 ± 0.044 | 5 ± 0.4% | 14 ± 1.2% | 75 ± 2.7% | 38 ± 2.6% | 
FC(F)(F)c1ccc(/C=C/C2=NN(c3ccccc3)C(c3ccc(C(F)(F)F)cc3)C2)cc1 (stereo not drawn) [Compound 2f] | 1.31 ± 0.031 | 5 ± 0.2% |  | 52 ± 2.5% | 14 ± 0.8% | 
Clc1ccc(/C=C/C2=NN(c3ccc(Br)cc3)C(c3ccc(Cl)cc3)C2)cc1 (stereo not drawn) [Compound 3d, (E)-1-(4-bromo-phenyl)-5-(4-chloro-phenyl)-3-(4-chlorostyryl)-4,5-dihydro-1H-pyrazole] | 1.39 ± 0.069 | 6 ± 0.5% |  | 52 ± 2.5% | 11 ± 0.8% | 
CN(C)c1ccc(/C=C/C2=NN(c3ccccc3)C(c3ccc(N(C)C)cc3)C2)cc1 (stereo not drawn) [Compound 2e] | 0.95 ± 0.092 | 24 ± 0.9% | 45 ± 1% | 78 ± 0.4% |  | 0.35 µM
CC(=O)N1N=C(/C=C/c2ccc(N(C)C)cc2)CC1c1ccc(N(C)C)cc1 (stereo not drawn) [Compound 6e, (E)-5-(4-dimethylaminophenyl)-3-(4-dimethylaminostyryl)-4,5-dihydro-1-H-pyrazol-1-ethan-1-one] | 0.47 ± 0.036 | 7 ± 0.5% | 12 ± 1% | 56 ± 0.3% |  | 40 µM
